These results are taken from patent US8563551B2, “Method for preventing or treating a disease related to the glucocorticoid receptor” (Santen Pharmaceutical Co., Ltd., priority 2006, dated 2013).

In the test the target is T1, Recombinant human GR (Homo sapiens, UniProt P04150).
T1 construct: purchased Invitrogen P2816
T1 sequence (P04150 1-777): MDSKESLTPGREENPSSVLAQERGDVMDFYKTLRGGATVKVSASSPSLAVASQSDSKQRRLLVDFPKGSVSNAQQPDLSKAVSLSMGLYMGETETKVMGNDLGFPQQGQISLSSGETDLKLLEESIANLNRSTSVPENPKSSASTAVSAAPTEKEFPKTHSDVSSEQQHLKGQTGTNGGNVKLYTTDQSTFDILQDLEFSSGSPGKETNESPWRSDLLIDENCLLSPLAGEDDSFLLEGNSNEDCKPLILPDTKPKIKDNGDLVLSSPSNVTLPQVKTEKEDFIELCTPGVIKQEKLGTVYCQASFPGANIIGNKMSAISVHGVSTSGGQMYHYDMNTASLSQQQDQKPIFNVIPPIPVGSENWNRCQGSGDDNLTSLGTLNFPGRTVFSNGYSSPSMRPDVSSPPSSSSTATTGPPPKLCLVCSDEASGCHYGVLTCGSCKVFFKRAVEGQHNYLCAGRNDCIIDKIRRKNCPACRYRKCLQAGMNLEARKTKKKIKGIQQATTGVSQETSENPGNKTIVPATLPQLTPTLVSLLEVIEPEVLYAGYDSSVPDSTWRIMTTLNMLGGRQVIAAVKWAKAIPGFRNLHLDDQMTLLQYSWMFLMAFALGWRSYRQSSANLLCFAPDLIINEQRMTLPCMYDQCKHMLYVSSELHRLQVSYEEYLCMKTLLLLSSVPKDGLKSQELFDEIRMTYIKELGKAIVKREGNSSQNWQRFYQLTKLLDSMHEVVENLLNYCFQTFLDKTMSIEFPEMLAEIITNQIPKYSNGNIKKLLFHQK
In words: GR competitor assay (receptor competitor assay by fluorescence polarization, Invitrogen kit P2816). The following applies: 20 μM test compound solution (10 μL per well plus 5 μL 4×GS1 and 5 μL 4×GR); relative to 2 mM dexamethasone positive control; ratios of 100% or more are indicated by 100%; read-out: GR Binding ratio (%). As for the experimental part: In order to evaluate a binding activity to GR, a receptor competitor assay was carried out by a fluorescence polarization method. In the assay, a GR competitor assay kit (manufactured by Invitrogen, cat No. P2816) was used, and a procedure was carried out according to the protocol attached to the kit. Hereinafter, the specific method will be described.
GR screening buffer: A buffer containing 10 mM potassium phosphate (pH 7.4), 20 mM sodium molybdate (Na2MoO4), 0.1 mM ethylene diamine tetraacetic acid (EDTA), 5 mM dithiothreitol (DTT), 0.1 mM stabilizing peptide and 2% dimethylsulfoxide was prepared.
4×GS1 solution: Fluormone™ GS1, which is a fluorescent glucocorticoid ligand, was diluted with GR screening buffer, whereby a 4 nM solution was prepared.
4×GR solution: Recombinant human GR was diluted with GR screening buffer, whereby a 16 nM solution was prepared.
After a test compound was dissolved in dimethylsulfoxide, the resulting solution was diluted with GR screening buffer, whereby a 20 μM test compound solution was prepared.
1) The test compound solution was added in an amount of 10 μL into each well of a 384-well plate, and then, 4×GS1 solution and 4×GR solution were added in an amount of 5 μL into each well, respectively.
2) The plate was incubated in a dark place at room temperature for 2 to 4 hours.
3) By using a multimode plate reader, Analyst™ HT (manufactured by LJL Biosystems), fluorescence polarization of each well was measured. As the blank, a well containing GR screening buffer in place of the test compound and 4×GS1 solution was used.
4) The same procedure as that in the above 1) to 3) was carried out except that GR screening buffer was used in place of the test compound solution, and the obtained result was taken as the negative control.
5) The same procedure as that in the above 1) to 3) was carried out except that 2 mM dexamethasone was used in place of the test compound solution, and the obtained result was taken as the positive control.
A GR binding ratio (%) was calculated from the following equation. GR binding ratio(%)=100×[1−(fluorescence polarization of test compound solution−fluorescence polarization of positive control solution)/(fluorescence polarization of negative control solution fluorescence polarization of positive control solution)] (Test Results and Discussion)

With `COc1cc(OC(=O)c2ccccc2Cl)ccc1-c1ccc2c(c1COC(=O)c1ccc(C)cc1)C(C)=CC(C)(C)N2` [Compound 1-6, 6-[4-(2-Chlorobenzoyloxy)-2-methoxyphenyl]-5-(4-methylbenzoyloxymethyl)-2,2,4-trimethyl-1,2-dihydroquinoline], the inhibition at 20 µM (stock) turned out to be 100%.

With `COc1cc(OC(=O)c2ccc(C)cc2)ccc1-c1ccc2c(c1COC(=O)c1ccc(C)s1)C(C)=CC(C)(C)N2` [Compound 1-47, 6-[2-Methoxy-4-(4-methylbenzoyloxy)phenyl]-5-(5-methylthiophen-2-ylcarbonyloxymethyl)-2,2,4-trimethyl-1,2-dihydroquinoline], the inhibition at 20 µM (stock) amounted to 96%. On to `COc1cc(OC(=O)c2ccoc2)ccc1-c1ccc2c(c1COC(=O)c1ccc(C)cc1)C(C)=CC(C)(C)N2` [Compound 1-3, 6-[4-(Furan-3-ylcarbonyloxy)-2-methoxyphenyl]-5-(4-methylbenzoyloxymethyl)-2,2,4-trimethyl-1,2-dihydroquinoline], for which the inhibition at 20 µM (stock) came to 100%. Take `COc1cc(OC(=O)c2cncnc2)ccc1-c1ccc2c(c1COC(=O)c1ccc(C)s1)C(C)=CC(C)(C)N2` [Compound 1-23, 6-[2-Methoxy-4-(pyrimidin-5-ylcarbonyloxy)phenyl]-5-(5-methylthiophen-2-ylcarbonyloxymethyl)-2,2,4-trimethyl-1,2-dihydroquinoline]: the inhibition at 20 µM (stock) was 94%. Under `COc1ccc(C(=O)OCc2c(-c3ccc(OC(=O)c4cccnc4)cc3OC)ccc3c2C(C)=CC(C)(C)N3)cc1` [Compound 1-34, 5-(4-Methoxybenzoyloxymethyl)-6-[2-methoxy-4-(pyridin-3-ylcarbonyloxy)phenyl]-2,2,4-trimethyl-1,2-dihydroquinoline] stands 95%; under `COc1cc(OC(=O)c2cccnc2)ccc1-c1ccc2c(c1COC(=O)c1ccc(C)cc1)C(C)=CC(C)(C)N2` [Compound 1-8, 5-(4-Methylbenzoyloxymethyl)-6-[2-methoxy-4-(pyridin-3-ylcarbonyloxy)phenyl]-2,2,4-trimethyl-1,2-dihydroquinoline], 100%.

Consider `COc1cc(OC(=O)c2ccoc2)ccc1-c1ccc2c(c1COC(=O)c1ccc(C)s1)C(C)=CC(C)(C)N2` [Compound 1-25, 6-[4-(Furan-3-ylcarbonyloxy)-2-methoxyphenyl]-5-(5-methylthiophen-2-ylcarbonyloxymethyl)-2,2,4-trimethyl-1,2-dihydroquinoline], for which the inhibition at 20 µM (stock) turned out to be 94%.

In the case of `COc1cc(OC(=O)c2cccnc2OC)ccc1-c1ccc2c(c1COC(=O)c1ccc(C)s1)C(C)=CC(C)(C)N2` [Compound 1-45, 6-[2-Methoxy-4-(2-methoxypyridin-3-ylcarbonyloxy)phenyl]-5-(5-methylthiophen-2-ylcarbonyloxymethyl)-2,2,4-trimethyl-1,2-dihydroquinoline], the inhibition at 20 µM (stock) amounted to 100%.

On to `COc1cc(OC(=O)c2ccccc2C)ccc1-c1ccc2c(c1COC(=O)c1ccc(C)s1)C(C)=CC(C)(C)N2` [Compound 1-19, 6-[2-Methoxy-4-(2-methylbenzoyloxy)phenyl]-5-(5-methylthiophen-2-ylcarbonyloxymethyl)-2,2,4-trimethyl-1,2-dihydroquinoline], for which the inhibition at 20 µM (stock) came to 89%. Under `COc1cc(OC(=O)c2ccncc2)ccc1-c1ccc2c(c1COC(=O)c1ccc(C)s1)C(C)=CC(C)(C)N2` [Compound 1-33, 6-[2-Methoxy-4-(pyridin-4-ylcarbonyloxy)phenyl]-5-(5-methylthiophen-2-ylcarbonyloxymethyl)-2,2,4-trimethyl-1,2-dihydroquinoline] stands 96%; under `COc1cc(OC(=O)c2cccnc2C)ccc1-c1ccc2c(c1COC(=O)c1ccc(C)s1)C(C)=CC(C)(C)N2` [Compound 1-30, 6-[2-Methoxy-4-(2-methylpyridin-3-ylcarbonyloxy)phenyl]-5-(5-methylthiophen-2-ylcarbonyloxymethyl)-2,2,4-trimethyl-1,2-dihydroquinoline], 96%; under `COc1cc(OC(=O)N2CCOCC2)ccc1-c1ccc2c(c1COC(=O)c1ccc(C)s1)C(C)=CC(C)(C)N2` [Compound 4-3, 6-[2-Methoxy-4-(morpholin-4-ylcarbonyloxy)phenyl]-5-(5-methylthiophen-2-ylcarbonyloxymethyl)-2,2,4-trimethyl-1,2-dihydroquinoline], 94%. As to `CCCS(=O)(=O)Oc1ccc(-c2ccc3c(c2COC(=O)c2ccc(C)s2)C(C)=CC(C)(C)N3)c(OC)c1` [Compound 2-2, 6-(2-Methoxy-4-propylsulfonyloxyphenyl)-5-(5-methylthiophen-2-ylcarbonyloxymethyl)-2,2,4-trimethyl-1,2-dihydroquinoline], the inhibition at 20 µM (stock) amounted to 99%. Under `COc1cc(OS(=O)(=O)C2CCCC2)ccc1-c1ccc2c(c1COC(=O)c1ccc(C)s1)C(C)=CC(C)(C)N2` [Compound 2-5, 6-(4-Cyclopentylsulfonyloxy-2-methoxyphenyl)-5-(5-methylthiophen-2-ylcarbonyloxymethyl)-2,2,4-trimethyl-1,2-dihydroquinoline] stands 100%; under `COc1cc(OS(=O)(=O)C(C)C)ccc1-c1ccc2c(c1COC(=O)c1ccc(C)s1)C(C)=CC(C)(C)N2` [Compound 2-4, 6-(4-Isopropylsulfonyloxy-2-methoxyphenyl)-5-(5-methylthiophen-2-ylcarbonyloxymethyl)-2,2,4-trimethyl-1,2-dihydroquinoline], 100%; under `COc1cc(OC(=O)c2cscn2)ccc1-c1ccc2c(c1COC(=O)c1ccc(C)s1)C(C)=CC(C)(C)N2` [Compound 1-32, 6-[2-Methoxy-4-(thiazol-4-ylcarbonyloxy)phenyl]-5-(5-methylthiophen-2-ylcarbonyloxymethyl)-2,2,4-trimethyl-1,2-dihydroquinoline], 99%. In the case of `COc1cc(OC(=O)c2ccccc2F)ccc1-c1ccc2c(c1COC(=O)c1ccc(C)s1)C(C)=CC(C)(C)N2` [Compound 1-20, 6-[4-(2-Fluorobenzoyloxy)-2-methoxyphenyl]-5-(5-methylthiophen-2-ylcarbonyloxymethyl)-2,2,4-trimethyl-1,2-dihydroquinoline] it was 90%; in that of `COc1cc(OC(=O)c2ccsc2)ccc1-c1ccc2c(c1COC(=O)c1ccc(C)s1)C(C)=CC(C)(C)N2` [Compound 1-24, 6-[2-Methoxy-4-(thiophen-3-ylcarbonyloxy)phenyl]-5-(5-methylthiophen-2-ylcarbonyloxymethyl)-2,2,4-trimethyl-1,2-dihydroquinoline], 94%; in that of `CCCCS(=O)(=O)Oc1ccc(-c2ccc3c(c2COC(=O)c2ccc(C)s2)C(C)=CC(C)(C)N3)c(OC)c1` [Compound 2-8, 6-(4-Butylsulfonyloxy-2-methoxyphenyl)-5-(5-methylthiophen-2-ylcarbonyloxymethyl)-2,2,4-trimethyl-1,2-dihydroquinoline], 100%. For the compound `COc1cc(OC(=O)c2ccc(C)nc2)ccc1-c1ccc2c(c1COC(=O)c1ccc(C)s1)C(C)=CC(C)(C)N2` [Compound 1-2, 6-[2-Methoxy-4-(6-methylpyridin-3-ylcarbonyloxy)phenyl]-5-(5-methylthiophen-2-ylcarbonyloxymethyl)-2,2,4-trimethyl-1,2-dihydroquinoline], the inhibition at 20 µM (stock) worked out at 93%.
